Results: patent publication EP4813991A1 (iLeadBMS Co., Ltd., priority 2023, dated 2025)
Like-named read-outs stand apart in the source and are kept apart here.

What was measured:
[1] = biological target: T1, CDK12 (Homo sapiens, UniProt Q9NYV4); assay: CDK12 kinase inhibitory activity assay (33P-ATP filter binding); type: biochemical; settings: kinase reaction 120 minutes, 33P-gamma-ATP; read-out: CDK12 IC50
Description: (§1) Before initiating the CDK12 and CDK13 kinase reactions, each Example compound was dissolved and diluted in DMSO as a solvent across 9 concentration ranges at room temperature. The diluted solutions were then incubated with a mixture of kinase and substrate (and cofactors, if required) for 20 minutes. Next, radioisotope-labeled ATP (^33P-gamma-ATP) was added to proceed with the kinase reaction at room temperature for 120 minutes. After the reaction was completed, the reaction mixture was transferred to a filter paper that binds the radioisotope-labeled catalytic product (^33P-substrate). Unreacted ^33P-ATP was removed by washing with 0.75 % phosphoric acid, and then the radioactive phosphorylated substrate remaining on the filter paper was measured. Kinase activity data were expressed as a percentage of the kinase activity remaining in the test sample compared to a DMSO control group. The half-maximal inhibitory concentration (IC50) for each kinase was calculated using Prism (Graphpad) software.

[2] = biological target: CDK13 (Homo sapiens, UniProt Q14004); assay: CDK13 kinase inhibitory activity assay (33P-ATP filter binding); type: biochemical
Description: as §1

[3] = tested on: MDA-MB-231 breast cancer cells; assay: Proliferation inhibitory activity assay against MDA-MB-231 breast cancer cells; type: cell-based; settings: Homo sapiens, 72 hours, CellTiter Glo, relative IC50
Description: Experiments were performed using the MDA-MB-231 breast cancer cell line to measure the cell proliferation inhibitory ability of each Example compound. MDA-MB-231 cells were dispensed into a 96-well plate at 100 µL of cell suspension per well using L-15 (Invitrogen) medium containing 10 % FBS, followed by incubation in a cell incubator at 37 °C and 0 % CO2. The next day, each Example compound dissolved and diluted in DMSO across 9 concentration ranges and a DMSO control group were treated on the cells for 72 hours. After the compound treatment was completed, 100 µL of CellTiter Glo (Promega) reagent was added to each well of the 96-well plate, followed by shaking for 10 minutes and standing at room temperature for 10 minutes. Luminescence signals were measured after inserting the 96-well plate into an Envision plate reader (PerkinElmer). Relative IC50 values were calculated by fitting a dose-response curve using XLfit (IDBS Ltd) software.
The breast cancer cell proliferation inhibitory activities of the Example compounds measured by the above method were evaluated according to the following criteria, and the results are presented in Table 13.

[4] = biological target: T1, CDK12; assay: Cellular CDK12 inhibitory activity assay (Ser2 phosphorylation of RNA polymerase II subunit B1 CTD in MDA-MB-231 cells); type: cell-based; parameters: using MDA-MB-231 breast cancer cells; endogenous in cells; host or cells: MDA-MB-231; settings: MDA-MB-231 cells, 6 hours treatment; read-out: pRpbl CTD S2 IC50
Description: MDA-MB-231 cells were dispensed into a 96-well plate at 100 µL of cell suspension per well using L-15 (Invitrogen) medium containing 10 % FBS, followed by overnight incubation in a cell incubator at 37 °C and 0 % CO2. The next day, each Example compound dissolved in DMSO across 9 concentration ranges and a DMSO control group were treated on the MDA-MB-231 cells at 37 °C and 0 % CO2 for 6 hours. After the compound treatment, the medium in the 96-well plate was removed, and 60 µL of a fixing solution (4.0 % paraformaldehyde in PBS) was added to each well, followed by standing for 20 minutes. After removing the fixing solution and washing with PBS, 60 µL of PBS containing 0.1 % Triton X-100 was dispensed into each well, followed by shaking at room temperature for 15 minutes. After washing with PBS, 100 µL of blocking buffer was added, followed by shaking at room temperature for 1 hour. After removing the blocking buffer, primary antibodies, which are RNA polymerase II subunit B1 phospho-Ser2 (1:500, Cell signaling technology) and RNA polymerase II subunit B1 carboxy-terminal domain (1:200, Cell signaling technology), were added at 60 µL per well and reacted overnight at 4 °C. After adding 150 µL of PBS containing 0.1 % Triton X-100 and washing at least twice by shaking at room temperature for 5 minutes, 60 µL of a secondary antibody was added, followed by shaking at room temperature for 1 hour while blocking light. After adding 150 µL of PBS containing 0.1 % Triton X-100 and washing at least twice by shaking at room temperature for 5 minutes, 150 µL of PBS was added again, followed by washing at least twice by shaking at room temperature for 5 minutes. The plate was scanned using a Li-COR Odyssey machine with the wells filled with PBS. IC50 values were calculated by fitting a dose-response curve using a 4-parameter model of Prism (Graphpad) software.

[5] = kinase reaction 120 minutes, 33P-gamma-ATP, read-out: CDK13 IC50

T1 sequence (Q9NYV4 whole entry, species assumed): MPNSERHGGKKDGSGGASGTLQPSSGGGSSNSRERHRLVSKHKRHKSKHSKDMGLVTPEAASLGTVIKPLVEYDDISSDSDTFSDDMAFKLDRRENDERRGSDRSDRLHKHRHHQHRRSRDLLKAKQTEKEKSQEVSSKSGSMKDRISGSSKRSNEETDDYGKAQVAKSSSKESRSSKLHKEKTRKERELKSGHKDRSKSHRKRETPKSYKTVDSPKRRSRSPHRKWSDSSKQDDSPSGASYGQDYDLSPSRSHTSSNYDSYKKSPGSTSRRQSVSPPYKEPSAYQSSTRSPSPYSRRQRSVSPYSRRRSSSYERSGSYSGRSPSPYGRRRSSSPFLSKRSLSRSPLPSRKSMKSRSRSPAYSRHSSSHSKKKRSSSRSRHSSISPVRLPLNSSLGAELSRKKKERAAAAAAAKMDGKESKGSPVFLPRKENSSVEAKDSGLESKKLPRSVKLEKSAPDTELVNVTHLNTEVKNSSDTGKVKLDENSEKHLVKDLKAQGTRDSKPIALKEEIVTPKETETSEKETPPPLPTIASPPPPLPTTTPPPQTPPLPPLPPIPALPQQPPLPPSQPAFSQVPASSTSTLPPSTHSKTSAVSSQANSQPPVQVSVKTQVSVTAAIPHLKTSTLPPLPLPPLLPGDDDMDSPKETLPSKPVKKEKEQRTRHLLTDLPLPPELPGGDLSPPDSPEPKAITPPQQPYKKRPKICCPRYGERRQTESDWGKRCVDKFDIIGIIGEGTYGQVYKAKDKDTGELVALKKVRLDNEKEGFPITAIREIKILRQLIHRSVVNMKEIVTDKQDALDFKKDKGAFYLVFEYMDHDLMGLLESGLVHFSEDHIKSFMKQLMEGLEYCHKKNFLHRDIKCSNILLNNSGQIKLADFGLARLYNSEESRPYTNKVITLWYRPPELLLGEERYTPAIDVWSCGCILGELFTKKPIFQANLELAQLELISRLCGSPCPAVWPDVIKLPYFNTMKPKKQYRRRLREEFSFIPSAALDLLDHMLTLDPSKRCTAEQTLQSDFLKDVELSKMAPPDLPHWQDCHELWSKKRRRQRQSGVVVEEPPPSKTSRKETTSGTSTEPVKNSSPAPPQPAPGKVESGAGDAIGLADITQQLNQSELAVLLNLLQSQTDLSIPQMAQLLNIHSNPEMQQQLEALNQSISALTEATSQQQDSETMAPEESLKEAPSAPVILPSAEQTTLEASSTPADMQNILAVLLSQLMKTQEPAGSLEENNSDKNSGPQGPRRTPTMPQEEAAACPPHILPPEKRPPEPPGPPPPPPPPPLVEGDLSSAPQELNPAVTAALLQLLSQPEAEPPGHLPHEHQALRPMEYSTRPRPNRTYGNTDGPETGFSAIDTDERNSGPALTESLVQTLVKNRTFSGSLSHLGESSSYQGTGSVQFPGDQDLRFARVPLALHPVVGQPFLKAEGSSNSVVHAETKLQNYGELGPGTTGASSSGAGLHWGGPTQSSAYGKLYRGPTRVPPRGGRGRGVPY
T1 sequence (O75909 whole entry partner, species assumed): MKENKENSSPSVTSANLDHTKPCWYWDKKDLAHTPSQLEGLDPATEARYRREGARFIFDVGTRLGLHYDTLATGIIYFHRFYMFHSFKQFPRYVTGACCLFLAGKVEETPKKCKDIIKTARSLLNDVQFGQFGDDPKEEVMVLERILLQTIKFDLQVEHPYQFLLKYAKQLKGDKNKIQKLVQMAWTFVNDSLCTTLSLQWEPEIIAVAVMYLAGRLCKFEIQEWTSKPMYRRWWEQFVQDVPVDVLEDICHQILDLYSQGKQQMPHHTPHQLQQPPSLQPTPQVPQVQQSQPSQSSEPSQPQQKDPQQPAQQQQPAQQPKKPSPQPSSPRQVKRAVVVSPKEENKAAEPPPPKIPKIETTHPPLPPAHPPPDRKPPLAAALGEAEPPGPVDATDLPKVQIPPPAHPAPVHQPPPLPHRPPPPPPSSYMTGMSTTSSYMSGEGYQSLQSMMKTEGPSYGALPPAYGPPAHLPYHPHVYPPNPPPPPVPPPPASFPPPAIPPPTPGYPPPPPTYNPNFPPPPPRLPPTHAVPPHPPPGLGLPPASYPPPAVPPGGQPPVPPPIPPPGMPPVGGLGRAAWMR
CDK13, sequence (Q14004 whole entry, species assumed): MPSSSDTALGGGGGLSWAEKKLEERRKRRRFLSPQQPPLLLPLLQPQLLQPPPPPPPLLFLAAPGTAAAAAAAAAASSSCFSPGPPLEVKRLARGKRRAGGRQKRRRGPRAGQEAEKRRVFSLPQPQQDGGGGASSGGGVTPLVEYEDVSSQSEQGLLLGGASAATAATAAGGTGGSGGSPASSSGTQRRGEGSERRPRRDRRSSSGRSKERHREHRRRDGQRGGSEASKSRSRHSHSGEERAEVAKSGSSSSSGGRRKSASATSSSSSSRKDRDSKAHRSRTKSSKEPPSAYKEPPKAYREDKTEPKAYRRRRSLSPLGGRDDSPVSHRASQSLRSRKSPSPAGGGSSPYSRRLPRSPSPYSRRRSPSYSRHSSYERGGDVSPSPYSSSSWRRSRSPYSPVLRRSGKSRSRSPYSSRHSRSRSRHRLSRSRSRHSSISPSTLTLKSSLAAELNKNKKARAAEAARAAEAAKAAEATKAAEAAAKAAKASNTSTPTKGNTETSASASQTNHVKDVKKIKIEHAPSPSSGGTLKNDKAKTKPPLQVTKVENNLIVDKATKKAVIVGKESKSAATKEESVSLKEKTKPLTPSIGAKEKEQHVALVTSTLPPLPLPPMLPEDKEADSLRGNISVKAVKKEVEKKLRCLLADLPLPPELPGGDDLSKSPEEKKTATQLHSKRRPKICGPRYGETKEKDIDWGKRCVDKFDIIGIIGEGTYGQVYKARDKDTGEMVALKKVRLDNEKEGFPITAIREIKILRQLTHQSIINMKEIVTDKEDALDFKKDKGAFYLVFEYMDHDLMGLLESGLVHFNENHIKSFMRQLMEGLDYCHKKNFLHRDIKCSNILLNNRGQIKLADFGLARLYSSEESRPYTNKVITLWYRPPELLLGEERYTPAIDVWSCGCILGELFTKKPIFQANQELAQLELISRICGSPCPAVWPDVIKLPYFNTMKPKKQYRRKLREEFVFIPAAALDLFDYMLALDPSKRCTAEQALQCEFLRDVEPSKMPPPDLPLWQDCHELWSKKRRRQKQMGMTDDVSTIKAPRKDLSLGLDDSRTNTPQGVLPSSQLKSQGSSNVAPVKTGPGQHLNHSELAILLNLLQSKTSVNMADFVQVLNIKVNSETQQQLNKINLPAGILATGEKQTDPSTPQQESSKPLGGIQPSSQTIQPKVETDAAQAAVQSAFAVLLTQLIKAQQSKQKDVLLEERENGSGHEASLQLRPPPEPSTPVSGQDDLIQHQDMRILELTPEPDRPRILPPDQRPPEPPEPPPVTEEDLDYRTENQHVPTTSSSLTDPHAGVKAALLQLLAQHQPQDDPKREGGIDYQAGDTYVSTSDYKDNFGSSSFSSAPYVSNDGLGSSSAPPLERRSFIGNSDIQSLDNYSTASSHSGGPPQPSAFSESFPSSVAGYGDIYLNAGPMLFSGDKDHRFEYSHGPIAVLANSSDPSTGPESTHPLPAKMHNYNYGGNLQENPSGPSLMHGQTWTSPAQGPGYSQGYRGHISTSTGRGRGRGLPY
CDK13, sequence (O75909 whole entry partner, species assumed): as the sequence (O75909 whole entry partner, species assumed) above

For `FC(F)(F)c1cnc2c(NCc3nc4cc(Cl)c(Cl)cc4o3)cc(N3CCOCC3)nn12` [Example 91, N-((5,6-dichlorobenzo[d]oxazol-2-yl)methyl)-6-morpholino-3-(trifluoromethyl)imidazo[1,2-b]pyridazin-8-amine], the IC50 [1] was greater than 500 nM, the IC50 [2, 5] was greater than 500 nM and the IC50 [3] was 50 to 500 nM. The IC50 [4] was 300 to 3000 nM.

`Fc1ccc2nc(CNc3cc(N4CCN(C5CC5)CC4)nn4c(C(F)(F)F)cnc34)[nH]c2c1F` [Example 28, 6-(4-cyclopropylpiperazin-1-yl)-N-((6,7-difluoro-1H-benzo[d]imidazol-2-yl)methyl)-3-(trifluoromethyl)imidazo[1,2-b]pyridazin-8-amine] was tested, and the IC50 [1] was 100 to 500 nM, the IC50 [2] was 100 to 500 nM and the IC50 [3] was 50 to 500 nM. The IC50 [4] was 300 to 3000 nM.

In the case of `N#CC1(O)CN(c2cc(NCc3nc4cc(Cl)c(Cl)cc4[nH]3)c3ncc(C(F)(F)F)n3n2)C1` [Example 59, 1-(8-(((5,6-dichloro-1H-benzo[d]imidazol-2-yl)methyl)amino)-3-(trifluoromethyl)imidazo[1,2-b]pyridazin-6-yl)-3-hydroxyazetidine-3-carbonitrile], the IC50 [1] is reported as 100 to 500 nM, the IC50 [2] is reported as 100 to 500 nM and the IC50 [3] is reported as no more than 50 nM. The IC50 [4] was less than 300 nM.

With `FC(F)(F)c1cnc2c(NCc3nc4cc(Cl)c(Cl)cc4[nH]3)cc(N3CCNCC3)nn12` [Example 57, N-((5,6-dichloro-1H-benzo[d]imidazol-2-yl)methyl)-6-(piperazin-1-yl)-3-(trifluoromethyl)imidazo[1,2-b]pyridazin-8-amine] the IC50 [1] was less than 100 nM, the IC50 [2, 5] was less than 100 nM and the IC50 [3] was no more than 50 nM. It also gave an IC50 [4] of less than 300 nM.

Work on `O[C@H]1CCN(c2cc(NCc3nc4cc(Cl)c(Cl)cc4[nH]3)c3ncc(C(F)(F)F)n3n2)C1` [Example 63, (S)-1-(8-(((5,6-dichloro-1H-benzo[d]imidazol-2-yl)methyl)amino)-3-(trifluoromethyl)imidazo[1,2-b]pyridazin-6-yl)pyrrolidin-3-ol] yielded an IC50 [1] of 100 to 500 nM, an IC50 [2] of less than 100 nM and an IC50 [3] of 50 to 500 nM. The IC50 [4] was less than 300 nM.

`Nc1ncc(-c2cc(NCc3nc4cc(F)c(F)cc4[nH]3)c3ncc(C(F)(F)F)n3n2)cn1` [Example 113, 6-(2-aminopyrimidin-5-yl)-N-((5,6-difluoro-1H-benzo[d]imidazol-2-yl)methyl)-3-(trifluoromethyl)imidazo[1,2-b]pyridazin-8-amine] was tested, and the IC50 [1] was less than 100 nM, the IC50 [2, 5] was less than 100 nM and the IC50 [3] was no more than 50 nM. For the same molecule, the IC50 [4] was less than 300 nM.

`Fc1cc2nc(CNc3cc(N4CCOCC4)nn4c(C(F)(F)F)cnc34)[nH]c2cc1F` [Example 70, N-((5,6-difluoro-1H-benzo[d]imidazol-2-yl)methyl)-6-morpholino-3-(trifluoromethyl)imidazo[1,2-b]pyridazin-8-amine] showed an IC50 [1] of less than 100 nM, an IC50 [2, 5] of less than 100 nM and an IC50 [3] of no more than 50 nM. For the same molecule, the IC50 [4] was less than 300 nM.

In the case of `CC#Cc1cnc2c(NCc3nc4ccc(F)c(F)c4[nH]3)cc(-c3cnc(N)nc3)nn12` [Example 20, 6-(2-aminopyrimidin-5-yl)-N-((6,7-difluoro-1H-benzo[d]imidazol-2-yl)methyl)-3-(prop-1-yn-1-yl)imidazo[1,2-b]pyridazin-8-amine], the IC50 [1] is reported as greater than 500 nM, the IC50 [2, 5] is reported as 100 to 500 nM and the IC50 [3] is reported as 50 to 500 nM. It also gave an IC50 [4] of 300 to 3000 nM.

Work on `N#CC1CN(c2cc(NCc3nc4ccc(F)c(F)c4[nH]3)c3ncc(C(F)(F)F)n3n2)C1` [Example 54, 1-(8-(((6,7-difluoro-1H-benzo[d]imidazol-2-yl)methyl)amino)-3-(trifluoromethyl)imidazo[1,2-b]pyridazin-6-yl)azetidine-3-carbonitrile] yielded an IC50 [3] of 50 to 500 nM and an IC50 [4] of 300 to 3000 nM.

`NC1CN(c2cc(NCc3nc4cc(Cl)c(Cl)cc4[nH]3)c3ncc(C(F)(F)F)n3n2)C1` [Example 36] was tested, and the IC50 [1] was less than 100 nM, the IC50 [2, 5] was less than 100 nM and the IC50 [3] was no more than 50 nM. For the same molecule, the IC50 [4] was less than 300 nM.

Work on `C[C@@H]1CN(c2cc(NCc3nc4cc(F)c(F)cc4[nH]3)c3ncc(C(F)(F)F)n3n2)C[C@H](C)N1` [Example 112, N-((5,6-difluoro-1H-benzo[d]imidazol-2-yl)methyl)-6-((3S, 5R)-3,5-dimethylpiperazin-1-yl)-3-(trifluoromethyl)imidazo[1,2-b]pyridazin-8-amine] yielded an IC50 [1] of less than 100 nM, an IC50 [2, 5] of less than 100 nM and an IC50 [3] of no more than 50 nM. It also gave an IC50 [4] of less than 300 nM.

`FC(F)(F)c1cnc2c(NCc3cn4ncccc4n3)cc(N3CCOCC3)nn12` [Example 85, N-(imidazo[1,2-b]pyridazin-2-ylmethyl)-6-morpholino-3-(trifluoromethyl)imidazo[1,2-b]pyridazin-8-amine] gave an IC50 [1] of less than 100 nM, an IC50 [2] of less than 100 nM and an IC50 [3] greater than 500 nM. For the same molecule, the IC50 [4] was greater than 3000 nM.

`Fc1ccc2nc(CNc3cc(N4CCOCC4)nn4c(CC(F)(F)F)cnc34)[nH]c2c1F` [Example 2, N-((6,7-difluoro-1H-benzo[d]imidazol-2-yl)methyl)-6-morpholino-3-(2,2,2-trifluoroethyl)imidazo[1,2-b]pyridazin-8-amine] was tested, and the IC50 [1] was 100 to 500 nM, the IC50 [2] was 100 to 500 nM and the IC50 [3] was 50 to 500 nM. For the same molecule, the IC50 [4] was 300 to 3000 nM.

For `FC(F)(F)c1cnc2c(NCc3cc4ncccn4n3)cc(N3CCOCC3)nn12` [Example 89, 6-morpholino-N-(pyrazolo[1,5-a]pyrimidin-2-ylmethyl)-3-(trifluoromethyl)imidazo[1,2-b]pyridazin-8-amine], the IC50 [1] was less than 100 nM, the IC50 [2] was less than 100 nM and the IC50 [3] was greater than 500 nM. For the same molecule, the IC50 [4] was greater than 3000 nM.

`FC(F)(F)c1ccc2[nH]c(CNc3cc(N4CCOCC4)nn4c(C(F)(F)F)cnc34)nc2c1` [Example 78, 6-morpholino-3-(trifluoromethyl)-N-((5-(trifluoromethyl)-1H-benzo[d]imidazol-2-yl)methyl)imidazo[1,2-b]pyridazin-8-amine] showed an IC50 [1] of less than 100 nM, an IC50 [2, 5] of less than 100 nM and an IC50 [3] of 50 to 500 nM. For the same molecule, the IC50 [4] was 300 to 3000 nM.

With `OC1CC2CCC(C1)N2c1cc(NCc2nc3cc(Cl)c(Cl)cc3[nH]2)c2ncc(C(F)(F)F)n2n1` (centres unmarked) [Example 101, 8-(8-(((5,6-dichloro-1H-benzo[d]imidazol-2-yl)methyl)amino)-3-(trifluoromethyl)imidazo[1,2-b]pyridazin-6-yl)-8-azabicyclo[3.2.1]octan-3-ol] the IC50 [1] was 100 to 500 nM, the IC50 [2, 5] was less than 100 nM and the IC50 [3] was no more than 50 nM. It also gave an IC50 [4] of less than 300 nM.

In the case of `FC(F)(F)c1cnc2c(NCc3cc4ccccn4n3)cc(N3CCOCC3)nn12` [Example 86, 6-morpholino-N-(pyrazolo[1,5-a]pyridin-2-ylmethyl)-3-(trifluoromethyl)imidazo [1,2-b]pyridazin-8-amine], the IC50 [1] is reported as less than 100 nM, the IC50 [2, 5] is reported as less than 100 nM and the IC50 [3] is reported as greater than 500 nM. For the same molecule, the IC50 [4] was 300 to 3000 nM.

`CC1(O)CN(c2cc(NCc3nc4cc(Cl)c(Cl)cc4[nH]3)c3ncc(C(F)(F)F)n3n2)C1` [Example 52, 1-(8-(((5,6-dichloro-1H-benzo[d]imidazol-2-yl)methyl)amino)-3-(trifluoromethyl)imidazo[1,2-b]pyridazin-6-yl)-3-methylazetidin-3-ol] was tested, and the IC50 [1] was 100 to 500 nM, the IC50 [2, 5] was less than 100 nM and the IC50 [3] was no more than 50 nM. For the same molecule, the IC50 [4] was less than 300 nM.

Work on `FC(F)(F)c1cnc2c(NCc3nc4cc(Cl)c(Cl)cc4s3)cc(N3CCOCC3)nn12` [Example 93, N-((5,6-dichlorobenzo[d]thiazol-2-yl)methyl)-6-morpholino-3-(trifluoromethyl)imidazo[1,2-b]pyridazin-8-amine] yielded an IC50 [1] greater than 500 nM, an IC50 [2, 5] greater than 500 nM and an IC50 [3] of 50 to 500 nM. The IC50 [4] was 300 to 3000 nM.
